Laboratory results: patent US10463782B2, “Patient-based parameter generation systems for medical injection procedures” (BAYER HEALTHCARE LLC, priority 2006, dated 2019)

Assay: cardiovascular CTA (Siemens Sensation 64) contrast enhancement, generated protocol vs standard biphasic protocol
Type: in vivo, patients
Description: It was expected that left and right heart contrast enhancement would be more consistent across subjects using the cardiac protocol generation system/method of the present invention as compared to typical methods of establishing protocol parameters. To evaluate the level and consistency of enhancement, cardiac CE CT data from a pilot study were analyzed. Two anatomic regions of interest (the descending aorta and the right ventricle) were identified in each subject's scan (reconstructed at 60% RR interval) via a semi-automatic segmentation algorithm. For every set of axial slices acquired at a single time point, the mean enhancement within each of the regions was computed, yielding time enhancement curves. The influence of a per-patient, contrast injection protocol having a dilution phase on right heart enhancement during cardiac CTA was also studied. Sufficient enhancement for assessment of the right heart allows for the assessment of right heart pathology. […] Standard Errors in the other groups were: uni-phasic (+/−39 HU)), bi-phasic (+/−39 HU), and fixed dilution phase (+/−28 HU). […] Left Heart Enhancement averaged 325 HU+/−80
A study of 20 patients undergoing cardiovascular CTA (Siemens Sensation 64) using injection protocols generated using the system/method of the present invention (Iopimidol 370) and 19 control subjects with a standard biphasic protocol (Iopimidol 370 contrast volume=scan duration×5 ml/s, followed by a 40 ml saline flush) was made. All values of the time enhancement curves were pooled across subjects, and the two groups were compared via unpaired t-tests. The mean enhancements for the protocols generated by the present invention and the biphasic protocols were 357±69 HU and 323±64 HU, respectively (p=10^−8). The right ventricle mean enhancements were 318±85 HU and 212±96 HU (p=10^−21).

For `C[C@H](O)C(=O)Nc1c(I)c(C(=O)NC(CO)CO)c(I)c(C(=O)NC(CO)CO)c1I` [Iopimidol 370, Iopimidol], the “right ventricle mean enhancement (FIG. 35C)” value (protocols generated by the present invention, 20 patients) was 318±85 HU, the “mean enhancement (descending aorta, FIG. 35B)” value (protocols generated by the present invention, 20 patients, time enhancement curve values pooled across subjects) was 357±69 HU and the “mean enhancement (descending aorta, FIG. 35B)” value (standard biphasic protocol (contrast volume = scan duration x 5 ml/s, then 40 ml saline flush), 19 control subjects) was 323±64 HU. The “right ventricle mean enhancement (FIG. 35C)” value (standard biphasic protocol, 19 control subjects) was 212±96 HU.
